Measurements taken from ChEMBL document CHEMBL1201862, “PubChem BioAssay data set” (2004).
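In this assay, cells in 96-well plates receive the compound at five concentrations for 48 hours. Endpoints are linearly interpolated between the surrounding concentrations. Abbreviation: GI50, concentration required for 50% inhibition of growth.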 The source made the active and inactive calls. Cut-off read from the data, not from the text of the source: active = GI50 up to about 1.1 µM and inactive = higher.

Key:
Assay in all cases: DTP human tumour cell line panel, 48 h
RPMI-8226 = tested on: RPMI-8226
K562 = tested on: K562
HCT-15 = tested on: HCT-15
SNB-19 = tested on: SNB-19
CCRF-CEM = tested on: CCRF-CEM
786-0 = tested on: 786-0
NCI-H522 = tested on: NCI-H522
U-251 = tested on: U-251
HOP-62 = tested on: HOP-62
RXF 393 = tested on: RXF 393
HL-60 = tested on: HL-60
HT-29 = tested on: HT-29
MCF7 = tested on: MCF7
SW-620 = tested on: SW-620
SF-539 = tested on: SF-539
COLO 205 = tested on: COLO 205
DU-145 = tested on: DU-145
LOX IMVI = tested on: LOX IMVI
SNB-75 = tested on: SNB-75
OVCAR-3 = tested on: OVCAR-3

Row | SMILES | GI50 (RPMI-8226) | GI50 (K562) | GI50 (HCT-15) | GI50 (SNB-19) | GI50 (CCRF-CEM) | GI50 (786-0) | GI50 (NCI-H522) | GI50 (U-251) | GI50 (HOP-62) | GI50 (RXF 393) | GI50 (HL-60) | GI50 (HT-29) | GI50 (MCF7) | GI50 (SW-620) | GI50 (SF-539) | GI50 (COLO 205) | GI50 (DU-145) | GI50 (LOX IMVI) | GI50 (SNB-75) | GI50 (OVCAR-3)
1 | CN1N=C(c2ccncc2)OC1c1ccc(Cl)cc1Cl (stereo not given) | 72.8 µM (inactive) | 50.5 µM (inactive) | > 100 µM | > 100 µM (inactive) | 48.6 µM (inactive) | 97.7 µM (inactive) | 72.6 µM (inactive) | > 100 µM (inactive) | > 100 µM (inactive) | > 100 µM (inactive) | 41.2 µM (inactive) | 59.2 µM (inactive) | > 100 µM (inactive) | > 100 µM (inactive) | 44.5 µM (inactive) | 36.1 µM (inactive) | > 100 µM (inactive) | > 100 µM (inactive) | 12.6 µM (inactive) | 64.3 µM (inactive)
2 | COC(=O)[C@]12CC[C@H]3CN(C(=O)OCc4ccccc4)[C@H]([C@H]31)[C@H](c1ccccc1)N2 | 36.1 µM (inactive) | 58.1 µM (inactive) | 69.3 µM | > 100 µM (inactive) | 41.3 µM (inactive) | > 100 µM (inactive) | 52.1 µM (inactive) | > 100 µM (inactive) | > 100 µM (inactive) | 59.6 µM (inactive) | 39.6 µM (inactive) | 74.8 µM (inactive) | 67.6 µM (inactive) | > 100 µM (inactive) | > 100 µM (inactive) | 92.9 µM (inactive) | > 100 µM (inactive) | > 100 µM (inactive) | > 100 µM (inactive) | 74.1 µM (inactive)
3 | COC(=O)/C=C1/OC(c2ccccc2)=CC1=O | 6.25 µM (inactive) | 12 µM (inactive) | 15.6 µM | 17.3 µM (inactive) | 6.65 µM (inactive) | 14.5 µM (inactive) | 16.9 µM (inactive) | 16.4 µM (inactive) | 21.6 µM (inactive) | 14.5 µM (inactive) | 2.24 µM (inactive) | 18.5 µM (inactive) | 11.7 µM (inactive) | 16.1 µM (inactive) | 20.3 µM (inactive) | 15.9 µM (inactive) | 13.7 µM (inactive) | 16.2 µM (inactive) | 15.5 µM (inactive) | 17.9 µM (inactive)
4 | Cc1ccc2c(c1C)C(=O)/C(=C/c1ccccc1C(=O)O)C2 | 45.3 µM (inactive) | > 100 µM (inactive) | > 100 µM | > 100 µM (inactive) | 76.9 µM (inactive) | > 100 µM (inactive) | > 100 µM (inactive) | > 100 µM (inactive) | > 100 µM (inactive) | > 100 µM (inactive) | > 100 µM (inactive) | > 100 µM (inactive) | > 100 µM (inactive) | > 100 µM (inactive) | > 100 µM (inactive) | > 100 µM (inactive) | > 100 µM (inactive) | > 100 µM (inactive) | > 100 µM (inactive) | > 100 µM (inactive)
5 | CCCN(CCC)C(=S)N/N=C(/C)c1ccccc1O | 4.33 µM (inactive) | 4.06 µM (inactive) | 3.48 µM | 14.3 µM (inactive) | 2.96 µM (inactive) | 3.32 µM (inactive) | 1.19 µM (inactive) | 3.84 µM (inactive) | 4.25 µM (inactive) | 23.6 µM (inactive) | 3.96 µM (inactive) | 6.28 µM (inactive) | 4.02 µM (inactive) | 5.55 µM (inactive) | 4.06 µM (inactive) | 6.46 µM (inactive) | 6.84 µM (inactive) | 3.46 µM (inactive) | 5.56 µM (inactive) | 2.51 µM (inactive)
6 | CC1(C)N=C(N)N=C(N)N1c1ccc(CCCCc2ccc(S(=O)(=O)F)cc2Cl)c(Cl)c1 | 3.05 µM (inactive) | 0.425 µM (active) | 2.72 µM | 3.64 µM (inactive) | 1.62 µM (inactive) | 0.186 µM (active) | 4.68 µM (inactive) | 1.02 µM (active) | 9.35 µM (inactive) | 14.2 µM (inactive) | 0.366 µM (active) | 1.53 µM (inactive) | 2.39 µM (inactive) | 2.7 µM (inactive) | 1.67 µM (inactive) | 5.85 µM (inactive) | 2.85 µM (inactive) | 1.75 µM (inactive) | 9.23 µM (inactive) | 5.71 µM (inactive)
7 | COc1nc(N)c(N=O)c(OCc2ccccc2)n1 | > 10 µM (inactive) | > 10 µM (inactive) | 2.5 µM | > 10 µM (inactive) | 2.31 µM (inactive) | 5.21 µM (inactive) | 1.71 µM (inactive) | > 10 µM (inactive) | > 10 µM (inactive) | 5.15 µM (inactive) | 4.84 µM (inactive) | 3.38 µM (inactive) | 5.04 µM (inactive) | 1.61 µM (inactive) | 3.3 µM (inactive) | 1.09 µM (active) | > 10 µM (inactive) | 4.19 µM (inactive) | > 10 µM (inactive) | 4.01 µM (inactive)
8 | C=C(Br)CN(CC(=C)Br)C(C)=O | > 100 µM (inactive) | > 100 µM (inactive) | > 100 µM | 78.9 µM (inactive) | > 100 µM (inactive) | > 100 µM (inactive) | > 100 µM (inactive) | > 100 µM (inactive) | > 100 µM (inactive) | > 100 µM (inactive) | > 100 µM (inactive) | > 100 µM (inactive) | > 100 µM (inactive) | > 100 µM (inactive) | > 100 µM (inactive) | > 100 µM (inactive) | > 100 µM (inactive) | > 100 µM (inactive) | > 100 µM (inactive) | > 100 µM (inactive)
9 | CCCC(=O)Oc1c2ccsc2c(OC(=O)CCC)c2ccsc12 | 1.41 µM (inactive) | 1.24 µM (inactive) | 1.21 µM | 2.6 µM (inactive) | 1.54 µM (inactive) | 4.55 µM (inactive) | 2.26 µM (inactive) | 1.36 µM (inactive) | 0.536 µM (active) | 3.05 µM (inactive) | 1.08 µM (active) | 5.35 µM (inactive) | 2.23 µM (inactive) | 1.63 µM (inactive) | 0.982 µM (active) | 10.9 µM (inactive) | 0.857 µM (active) | 0.594 µM (active) | 1.83 µM (inactive) | 1.07 µM (active)
10 | O=C1C(=O)c2c(oc(=O)c3ccccc23)-c2ccccc21 | 19.3 µM (inactive) | > 25 µM (inactive) | 17.6 µM | > 25 µM (inactive) | > 25 µM (inactive) | > 25 µM (inactive) | 21.2 µM (inactive) | > 25 µM (inactive) | > 25 µM (inactive) | > 25 µM (inactive) | 8.11 µM (inactive) | 17.5 µM (inactive) | 10.9 µM (inactive) | 22.2 µM (inactive) | > 25 µM (inactive) | > 25 µM (inactive) | > 25 µM (inactive) | 16.9 µM (inactive) | 16.6 µM (inactive) | 7.05 µM (inactive)
11 | COC(=O)CCc1cc(O)c2c(c1)C(C(=O)OC)C(c1ccc(O)c(O)c1)O2 (stereo not given) | 22 µM (inactive) | 2.61 µM (inactive) | 4.36 µM | 11.1 µM (inactive) | 3.21 µM (inactive) | 26.1 µM (inactive) | 12.6 µM (inactive) | 11.8 µM (inactive) | 15.1 µM (inactive) | 18.7 µM (inactive) | 2.55 µM (inactive) | 27.2 µM (inactive) | 4.79 µM (inactive) | 6.17 µM (inactive) | 9.64 µM (inactive) | 31.4 µM (inactive) | > 41.9 µM (inactive) | 8.04 µM (inactive) | 2.35 µM (inactive) | 3.71 µM (inactive)
12 | Cn1ncc2c(Nc3cccc(Cl)c3)nc(Nc3cccc(Cl)c3)nc21 | 3.61 µM (inactive) | 1.75 µM (inactive) | 4.43 µM | 19.1 µM (inactive) | 1.15 µM (inactive) | 2.43 µM (inactive) | 8.93 µM (inactive) | 8.04 µM (inactive) | 17.3 µM (inactive) | 3.48 µM (inactive) | 7.94 µM (inactive) | 3.87 µM (inactive) | 4.68 µM (inactive) | 11.2 µM (inactive) | 19.9 µM (inactive) | > 24.7 µM (inactive) | 14.6 µM (inactive) | 5.82 µM (inactive) | 7.93 µM (inactive) | 18.5 µM (inactive)
13 | CCC(C)C1NC(=O)C(NC(=O)C(CC(C)C)N(C)C(=O)[C@@H]2CC(O)CN2C(=O)[C@H](C)O)C(C)OC(=O)[C@H](Cc2ccc(OC)cc2)N(C)C(=O)[C@@H]2CCCN2C(=O)[C@H](CC(C)C)NC(=O)C(C)C(=O)[C@H](C(C)C)OC(=O)CC1O (stereo not given in full) | 0.249 µM (active) | 0.29 µM (active) | 2.13 µM | 0.164 µM (active) | 0.191 µM (active) | 0.258 µM (active) | 0.15 µM (active) | 0.0718 µM (active) | 0.25 µM (active) | 0.0638 µM (active) | 0.417 µM (active) | 0.134 µM (active) | 0.0627 µM (active) | 0.235 µM (active) | 0.0319 µM (active) | 0.117 µM (active) | 0.356 µM (active) | 0.138 µM (active) | 0.141 µM (active) | 0.232 µM (active)
14 | O=C(CCCl)NN=C1NCCCN1 | > 100 µM (inactive) | > 100 µM (inactive) | > 100 µM | > 100 µM (inactive) | > 100 µM (inactive) | > 100 µM (inactive) | > 100 µM (inactive) | > 100 µM (inactive) | > 100 µM (inactive) | > 100 µM (inactive) | > 100 µM (inactive) | > 100 µM (inactive) | > 100 µM (inactive) | > 100 µM (inactive) | > 100 µM (inactive) | > 100 µM (inactive) | > 100 µM (inactive) | > 100 µM (inactive) | > 100 µM (inactive) | > 100 µM (inactive)
